Legend:
Assay in all cases: KINOMEscan
Assay type in all cases: binding
Conditions in all cases: read-out: Remaining enzyme activity
MAP4K4 = target: T1, MAP4K4 (Homo sapiens, UniProt O95819)
T1 construct: purchased Ambit (DiscoverX) KINOMEscan; Cerep
Description: (§1) The KINOMEscan was carried out by Ambit (San Diego, USA) according to a previously established protocol. The experiment was based on a competition binding assay that quantitatively measures the ability of a compound to compete with an immobilized, active-site directed ligand. The assay is performed by combining three components: DNA-tagged kinase; immobilized ligand; and a test compound. The ability of the test compound to compete with the immobilized ligand is measured via quantitative PCR of the DNA tag.
(§2) For most assays, kinase-tagged T7 phage strains were grown in parallel in 24-well blocks in an Escherichia coli host derived from the BL21 strain. E. coli were grown to log-phase and infected with T7 phage from a frozen stock and incubated with shaking at 32 °C until lysis (90–150 min). The lysates were centrifuged (6,000g) and filtered (0.2 μm) to remove cell debris. The remaining kinases were produced in HEK-293 cells (Sigma Aldrich, catalogue number: 85120602) and subsequently tagged with DNA for quantitative PCR detection. […] The liganded beads were blocked with excess biotin and washed with blocking buffer (SeaBlock (Pierce), 1% bovine serum albumin, 0.05% Tween 20 and 1 mM dithiothreitol) to remove unbound ligand and to reduce non-specific phage binding. […] SC81458 was prepared as 40x stock in 100% DMSO and directly diluted into the assay to a final concentration of 10 μM. All reactions were performed in polypropylene 384-well plates in a final volume of 0.04 ml. […] The kinase concentration in the eluates was measured by quantitative PCR.

CAMK4 = target: T2, CAMK4 (Homo sapiens, UniProt Q16566)
T2 construct: purchased Ambit (DiscoverX) KINOMEscan; Cerep
Description: as §1, §2

TRKb = target: T3, TRKb (Homo sapiens, UniProt Q16620)
T3 construct: purchased Ambit (DiscoverX) KINOMEscan; Cerep
Description: as §1, §2

PLK4 = target: T4, PLK4 (Homo sapiens, UniProt O00444)
T4 construct: purchased Ambit (DiscoverX) KINOMEscan; Cerep
Description: as §1, §2

FLT3 = target: T5, FLT3 (Homo sapiens, UniProt P36888)
T5 construct: purchased Ambit (DiscoverX) KINOMEscan; Cerep
Description: as §1, §2

INSRR = target: T6, INSRR (Homo sapiens, UniProt P14616)
T6 construct: purchased Ambit (DiscoverX) KINOMEscan; Cerep
Description: as §1, §2

AMPK-alpha2 = target: T7, AMPK-alpha2 (Homo sapiens, UniProt P54646)
T7 construct: purchased Ambit (DiscoverX) KINOMEscan; Cerep
T7 sequence (P54646 whole entry): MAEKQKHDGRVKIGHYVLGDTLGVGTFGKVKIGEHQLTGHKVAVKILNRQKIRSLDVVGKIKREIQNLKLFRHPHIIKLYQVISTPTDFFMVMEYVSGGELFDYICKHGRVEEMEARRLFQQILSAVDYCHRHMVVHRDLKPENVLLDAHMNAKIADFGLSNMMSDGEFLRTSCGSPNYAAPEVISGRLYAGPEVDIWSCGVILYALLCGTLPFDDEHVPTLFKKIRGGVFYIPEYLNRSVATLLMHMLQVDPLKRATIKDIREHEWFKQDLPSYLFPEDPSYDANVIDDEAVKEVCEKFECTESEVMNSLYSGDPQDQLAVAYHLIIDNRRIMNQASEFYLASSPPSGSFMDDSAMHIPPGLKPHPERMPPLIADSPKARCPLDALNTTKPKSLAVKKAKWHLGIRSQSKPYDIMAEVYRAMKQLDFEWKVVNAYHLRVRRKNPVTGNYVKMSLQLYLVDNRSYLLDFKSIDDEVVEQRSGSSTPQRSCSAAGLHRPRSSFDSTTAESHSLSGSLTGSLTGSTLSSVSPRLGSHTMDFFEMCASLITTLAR
Description: as §1, §2

RIPK2 = target: T8, RIPK2 (Homo sapiens, UniProt O43353)
T8 construct: purchased Ambit (DiscoverX) KINOMEscan; Cerep
Description: as §1, §2

ABL1(T315I) = target: T9, ABL1(T315I) (Homo sapiens, UniProt P00519, T315I)
T9 construct: purchased Ambit (DiscoverX) KINOMEscan; Cerep
Description: as §1, §2

NEK9 = target: T10, NEK9 (Homo sapiens, UniProt Q8TD19)
T10 construct: purchased Ambit (DiscoverX) KINOMEscan; Cerep
Description: as §1, §2

MAK = target: T11, MAK (Homo sapiens, UniProt P20794)
T11 construct: purchased Ambit (DiscoverX) KINOMEscan; Cerep
Description: as §1, §2

TESK1 = target: T12, TESK1 (Homo sapiens, UniProt Q15569)
T12 construct: purchased Ambit (DiscoverX) KINOMEscan; Cerep
Description: as §1, §2

BTK = target: T13, BTK (Homo sapiens, UniProt Q06187)
T13 construct: purchased Ambit (DiscoverX) KINOMEscan; Cerep
Description: as §1, §2

TTK = target: T14, TTK (Homo sapiens, UniProt P33981)
T14 construct: purchased Ambit (DiscoverX) KINOMEscan; Cerep
T14 sequence (P33981 whole entry): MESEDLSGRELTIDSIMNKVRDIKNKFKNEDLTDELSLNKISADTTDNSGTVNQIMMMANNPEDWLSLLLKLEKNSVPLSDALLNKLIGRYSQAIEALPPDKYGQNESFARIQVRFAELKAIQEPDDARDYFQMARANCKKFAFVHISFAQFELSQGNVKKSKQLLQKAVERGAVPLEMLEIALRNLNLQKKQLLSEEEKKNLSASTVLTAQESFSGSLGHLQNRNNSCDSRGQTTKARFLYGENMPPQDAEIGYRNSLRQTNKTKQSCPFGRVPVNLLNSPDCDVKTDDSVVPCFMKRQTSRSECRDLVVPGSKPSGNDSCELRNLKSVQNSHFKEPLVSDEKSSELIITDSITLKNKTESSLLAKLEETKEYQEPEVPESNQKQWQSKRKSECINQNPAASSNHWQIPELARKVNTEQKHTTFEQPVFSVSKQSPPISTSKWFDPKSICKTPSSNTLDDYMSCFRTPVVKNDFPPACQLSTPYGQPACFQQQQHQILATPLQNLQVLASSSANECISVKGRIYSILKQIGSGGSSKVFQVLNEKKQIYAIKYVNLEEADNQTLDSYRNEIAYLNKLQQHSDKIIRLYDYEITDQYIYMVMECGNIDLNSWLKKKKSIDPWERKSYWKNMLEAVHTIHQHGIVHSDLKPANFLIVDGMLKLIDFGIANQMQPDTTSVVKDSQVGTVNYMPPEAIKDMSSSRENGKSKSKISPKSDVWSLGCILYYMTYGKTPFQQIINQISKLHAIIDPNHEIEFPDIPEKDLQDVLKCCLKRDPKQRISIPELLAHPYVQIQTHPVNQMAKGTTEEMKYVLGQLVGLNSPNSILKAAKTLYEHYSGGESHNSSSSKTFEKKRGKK
Description: as §1, §2

ERK4 = target: T15, ERK4 (Homo sapiens, UniProt P31152)
T15 construct: purchased Ambit (DiscoverX) KINOMEscan; Cerep
Description: as §1, §2

MEK1 = target: T16, MEK1 (Homo sapiens, UniProt Q02750)
T16 construct: purchased Ambit (DiscoverX) KINOMEscan; Cerep
Description: as §1, §2

MINK = target: T17, MINK (Homo sapiens, UniProt Q8N4C8)
T17 construct: purchased Ambit (DiscoverX) KINOMEscan; Cerep
Description: as §1, §2

INSR = target: T18, INSR (Homo sapiens, UniProt P06213)
T18 construct: purchased Ambit (DiscoverX) KINOMEscan; Cerep
T18 sequence (P06213 28-1382): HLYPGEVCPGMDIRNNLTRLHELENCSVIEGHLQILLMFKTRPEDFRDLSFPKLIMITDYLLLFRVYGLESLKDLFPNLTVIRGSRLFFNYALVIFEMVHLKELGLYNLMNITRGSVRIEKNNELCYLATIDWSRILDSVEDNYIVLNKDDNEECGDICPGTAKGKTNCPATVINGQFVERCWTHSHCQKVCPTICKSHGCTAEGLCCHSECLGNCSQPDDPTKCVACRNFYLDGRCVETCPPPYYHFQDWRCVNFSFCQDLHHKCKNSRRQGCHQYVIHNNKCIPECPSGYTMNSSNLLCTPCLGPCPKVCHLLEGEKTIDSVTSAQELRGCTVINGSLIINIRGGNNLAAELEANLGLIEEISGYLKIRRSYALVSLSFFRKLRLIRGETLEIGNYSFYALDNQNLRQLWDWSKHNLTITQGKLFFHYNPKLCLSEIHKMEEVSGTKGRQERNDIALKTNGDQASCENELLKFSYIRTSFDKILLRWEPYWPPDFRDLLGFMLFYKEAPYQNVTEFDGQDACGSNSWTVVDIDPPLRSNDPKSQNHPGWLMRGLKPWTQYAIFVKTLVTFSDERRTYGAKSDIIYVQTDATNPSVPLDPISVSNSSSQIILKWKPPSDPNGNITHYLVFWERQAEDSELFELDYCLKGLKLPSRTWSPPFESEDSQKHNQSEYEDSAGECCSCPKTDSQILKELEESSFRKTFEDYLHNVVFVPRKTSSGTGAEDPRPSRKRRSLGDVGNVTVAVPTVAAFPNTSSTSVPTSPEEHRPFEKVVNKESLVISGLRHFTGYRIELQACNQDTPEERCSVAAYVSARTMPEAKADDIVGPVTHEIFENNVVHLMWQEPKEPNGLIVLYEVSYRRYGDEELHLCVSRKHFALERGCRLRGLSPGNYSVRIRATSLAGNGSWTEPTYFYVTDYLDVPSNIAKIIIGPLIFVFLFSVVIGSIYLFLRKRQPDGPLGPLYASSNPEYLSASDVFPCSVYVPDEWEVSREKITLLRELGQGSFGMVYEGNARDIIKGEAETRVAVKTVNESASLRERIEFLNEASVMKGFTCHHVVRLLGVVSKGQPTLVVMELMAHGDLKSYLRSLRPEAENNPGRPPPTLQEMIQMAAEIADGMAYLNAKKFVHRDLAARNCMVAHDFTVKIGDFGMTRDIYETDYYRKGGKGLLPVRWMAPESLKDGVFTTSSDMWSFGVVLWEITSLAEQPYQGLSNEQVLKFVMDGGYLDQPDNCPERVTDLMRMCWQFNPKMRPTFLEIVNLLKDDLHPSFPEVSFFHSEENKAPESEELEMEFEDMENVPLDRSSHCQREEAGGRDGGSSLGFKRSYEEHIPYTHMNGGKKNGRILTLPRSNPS
Description: as §1, §2

STK35 = target: T19, STK35 (Homo sapiens, UniProt Q8TDR2)
T19 construct: purchased Ambit (DiscoverX) KINOMEscan; Cerep
Description: as §1, §2

CSNK1g1 = target: T20, CSNK1g1 (Homo sapiens, UniProt Q9HCP0)
T20 construct: purchased Ambit (DiscoverX) KINOMEscan; Cerep
Description: as §1, §2

MAST1 = target: T21, MAST1 (Homo sapiens, UniProt Q9Y2H9)
T21 construct: purchased Ambit (DiscoverX) KINOMEscan; Cerep
Description: as §1, §2

PIK3C2b = target: T22, PIK3C2b (Homo sapiens, UniProt O00750)
T22 construct: purchased Ambit (DiscoverX) KINOMEscan; Cerep
Description: as §1, §2

NDR2 = target: T23, NDR2 (Homo sapiens, UniProt Q9Y2H1)
T23 construct: purchased Ambit (DiscoverX) KINOMEscan; Cerep
Description: as §1, §2

PDGFRa = target: T24, PDGFRa (Homo sapiens, UniProt P16234)
T24 construct: purchased Ambit (DiscoverX) KINOMEscan; Cerep
Description: as §1, §2

PFTAIRE2 = target: T25, PFTAIRE2 (Homo sapiens, UniProt Q96Q40)
T25 construct: purchased Ambit (DiscoverX) KINOMEscan; Cerep
Description: as §1, §2

PIP5K1a = target: T26, PIP5K1a (Homo sapiens, UniProt Q99755)
T26 construct: purchased Ambit (DiscoverX) KINOMEscan; Cerep
Description: as §1, §2

CSNK1e = target: T27, CSNK1e (Homo sapiens, UniProt P49674)
T27 construct: purchased Ambit (DiscoverX) KINOMEscan; Cerep
Description: as §1, §2

DLK = target: T28, DLK (Homo sapiens, UniProt Q12852)
T28 construct: purchased Ambit (DiscoverX) KINOMEscan; Cerep
Description: as §1, §2

PHKG2 = target: T29, PHKG2 (Homo sapiens, UniProt P15735)
T29 construct: purchased Ambit (DiscoverX) KINOMEscan; Cerep
T29 sequence (P15735 whole entry): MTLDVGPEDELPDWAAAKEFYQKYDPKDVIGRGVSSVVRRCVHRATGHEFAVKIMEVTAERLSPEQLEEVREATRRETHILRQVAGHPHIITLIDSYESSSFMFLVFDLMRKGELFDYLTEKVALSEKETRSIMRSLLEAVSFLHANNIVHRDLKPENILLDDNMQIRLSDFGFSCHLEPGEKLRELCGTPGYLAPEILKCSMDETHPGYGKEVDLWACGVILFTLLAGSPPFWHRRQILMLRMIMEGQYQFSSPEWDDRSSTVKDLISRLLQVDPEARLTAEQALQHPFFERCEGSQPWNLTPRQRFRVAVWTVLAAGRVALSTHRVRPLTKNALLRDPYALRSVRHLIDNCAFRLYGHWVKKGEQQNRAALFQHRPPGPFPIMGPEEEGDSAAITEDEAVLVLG
Description: as §1, §2

SRPK3 = target: T30, SRPK3 (Homo sapiens, UniProt Q9UPE1)
T30 construct: purchased Ambit (DiscoverX) KINOMEscan; Cerep
Description: as §1, §2

MKNK1 = target: T31, MKNK1 (Homo sapiens, UniProt Q9BUB5)
T31 construct: purchased Ambit (DiscoverX) KINOMEscan; Cerep
Description: as §1, §2

MEK2 = target: T32, MEK2 (Homo sapiens, UniProt P36507)
T32 construct: purchased Ambit (DiscoverX) KINOMEscan; Cerep
T32 sequence (P36507 whole entry): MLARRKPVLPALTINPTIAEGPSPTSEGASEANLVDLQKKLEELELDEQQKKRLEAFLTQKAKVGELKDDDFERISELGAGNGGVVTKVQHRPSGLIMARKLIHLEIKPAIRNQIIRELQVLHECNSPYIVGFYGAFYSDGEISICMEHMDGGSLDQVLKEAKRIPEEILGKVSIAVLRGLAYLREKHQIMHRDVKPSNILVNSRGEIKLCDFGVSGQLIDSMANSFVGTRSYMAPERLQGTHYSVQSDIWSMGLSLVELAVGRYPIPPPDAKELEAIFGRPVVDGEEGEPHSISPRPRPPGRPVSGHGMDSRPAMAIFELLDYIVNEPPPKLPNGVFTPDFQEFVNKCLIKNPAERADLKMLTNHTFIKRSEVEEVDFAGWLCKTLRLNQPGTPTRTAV
Description: as §1, §2

EPHA8 = target: T33, EPHA8 (Homo sapiens, UniProt P29322)
T33 construct: purchased Ambit (DiscoverX) KINOMEscan; Cerep
Description: as §1, §2

LIMK2 = target: T34, LIMK2 (Homo sapiens, UniProt P53671)
T34 construct: purchased Ambit (DiscoverX) KINOMEscan; Cerep
Description: as §1, §2

PRKD3 = target: T35, PRKD3 (Homo sapiens, UniProt O94806)
T35 construct: purchased Ambit (DiscoverX) KINOMEscan; Cerep
Description: as §1, §2

T1 sequence (O95819 whole entry): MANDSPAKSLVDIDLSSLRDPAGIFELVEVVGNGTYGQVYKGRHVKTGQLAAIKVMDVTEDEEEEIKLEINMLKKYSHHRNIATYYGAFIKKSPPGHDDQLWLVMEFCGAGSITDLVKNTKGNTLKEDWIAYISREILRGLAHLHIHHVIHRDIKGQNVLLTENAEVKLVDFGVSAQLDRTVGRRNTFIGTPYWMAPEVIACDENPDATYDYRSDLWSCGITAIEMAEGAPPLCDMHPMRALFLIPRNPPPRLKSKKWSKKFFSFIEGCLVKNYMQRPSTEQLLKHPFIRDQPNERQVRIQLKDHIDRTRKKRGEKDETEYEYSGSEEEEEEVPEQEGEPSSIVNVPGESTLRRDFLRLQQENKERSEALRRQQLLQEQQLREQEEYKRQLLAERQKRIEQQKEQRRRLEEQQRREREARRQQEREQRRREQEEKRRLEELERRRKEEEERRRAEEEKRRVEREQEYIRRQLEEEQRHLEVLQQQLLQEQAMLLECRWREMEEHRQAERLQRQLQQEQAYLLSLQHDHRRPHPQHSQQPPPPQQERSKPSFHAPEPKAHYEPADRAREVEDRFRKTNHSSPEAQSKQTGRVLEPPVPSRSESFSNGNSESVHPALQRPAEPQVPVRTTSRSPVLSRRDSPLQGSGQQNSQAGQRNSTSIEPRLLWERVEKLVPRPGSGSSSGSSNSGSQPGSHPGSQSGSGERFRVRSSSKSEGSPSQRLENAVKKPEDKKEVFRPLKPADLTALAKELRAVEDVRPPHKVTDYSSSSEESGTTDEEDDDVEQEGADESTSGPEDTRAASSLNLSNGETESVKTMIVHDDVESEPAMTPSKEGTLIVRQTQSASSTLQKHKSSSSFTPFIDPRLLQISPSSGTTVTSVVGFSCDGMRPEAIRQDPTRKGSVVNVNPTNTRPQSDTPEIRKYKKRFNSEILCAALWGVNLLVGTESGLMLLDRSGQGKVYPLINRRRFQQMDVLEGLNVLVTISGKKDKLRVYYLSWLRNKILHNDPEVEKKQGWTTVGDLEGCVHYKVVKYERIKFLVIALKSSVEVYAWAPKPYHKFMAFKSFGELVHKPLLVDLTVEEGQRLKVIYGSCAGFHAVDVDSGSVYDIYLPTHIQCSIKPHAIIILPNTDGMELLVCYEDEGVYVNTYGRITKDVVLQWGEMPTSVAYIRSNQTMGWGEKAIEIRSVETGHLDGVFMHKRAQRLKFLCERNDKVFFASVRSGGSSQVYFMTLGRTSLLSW

CCCCN1CCN(C(=N)c2cccc(NC(=O)Nc3ccc(S(=O)(=O)NCc4ccc(S(N)(=O)=O)cc4)cc3)c2)CC1 [SC81458, 4-(3-(3-((4-butylpiperazin-1-yl)(imino)methyl)phenyl)ureido)-N-(4-sulfamoylbenzyl) benzenesulfonamide]
remaining binding at 10 µM (MAP4K4): 100% | remaining binding at 10 µM (CAMK4): 51% | remaining binding at 10 µM (TRKb): 100% | remaining binding at 10 µM (PLK4): 93% | remaining binding at 10 µM (FLT3): 100% | remaining binding at 10 µM (INSRR): 95% | remaining binding at 10 µM (AMPK-alpha2): 96% | remaining binding at 10 µM (RIPK2): 96% | remaining binding at 10 µM (ABL1(T315I)): 100% | remaining binding at 10 µM (NEK9): 100% | remaining binding at 10 µM (MAK): 91% | remaining binding at 10 µM (TESK1): 100% | remaining binding at 10 µM (BTK): 100% | remaining binding at 10 µM (TTK): 91% | remaining binding at 10 µM (ERK4): 100% | remaining binding at 10 µM (MEK1): 100% | remaining binding at 10 µM (MINK): 95% | remaining binding at 10 µM (INSR): 100% | remaining binding at 10 µM (STK35): 87% | remaining binding at 10 µM (CSNK1g1): 100% | remaining binding at 10 µM (MAST1): 46% | remaining binding at 10 µM (PIK3C2b): 98% | remaining binding at 10 µM (NDR2): 100% | remaining binding at 10 µM (PDGFRa): 87% | remaining binding at 10 µM (PFTAIRE2): 100% | remaining binding at 10 µM (PIP5K1a): 100% | remaining binding at 10 µM (CSNK1e): 100% | remaining binding at 10 µM (DLK): 100% | remaining binding at 10 µM (PHKG2): 100% | remaining binding at 10 µM (SRPK3): 83% | remaining binding at 10 µM (MKNK1): 71% | remaining binding at 10 µM (MEK2): 100% | remaining binding at 10 µM (EPHA8): 83% | remaining binding at 10 µM (LIMK2): 100% | remaining binding at 10 µM (PRKD3): 100%
